The experiment concerns C57BL/6 mice. The experiment can be described thus: In vivo expression level of Luciferase-mRNA delivered by intravenous injection (bioluminescence imaging). Conditions: mRNA-loaded nanoparticles, intravenous (tail vein), 5 μg Luciferase-mRNA, 6 hours; for Fluorescence intensity of liver / Bioluminescence intensity: compounds of Example 1. The method, then:
Luciferase-mRNA was used as an mRNA model; and the cationic lipid analogues of Examples 1-5 were used to prepare drug-loaded nanoparticles according to the method of Example 6.
200 μL of nanoparticles containing 5 μg Luciferase-mRNA or the drug-loaded nanoparticles prepared above were injected into tail veins of 6-8 week-old C57BL/6 mice, and 200 μL of 1×PBS solution containing 3 mg D-Luciferin potassium salt was intraperitoneally injected into the mice 6 hours later. After waiting for 10 minutes, an in vivo expression level of the mRNA was evaluated by bioluminescence imaging.

With `CCCCCCCCCCCC(=O)N(CCO)C(C(=O)NCCN(CCNC(=O)C(C(C)C)N(CCO)C(=O)CCCCCCCCCCC)CCNC(=O)C(C(C)C)N(CCO)C(=O)CCCCCCCCCCC)C(C)C` (stereo not drawn) [A1I5R22C12], the “Fluorescence intensity of spleen” value (compounds of Example 3) is 2.96E+06.
Still for that read-out and setting: under `CCCCCCCCCCCCCCCC(=O)N(CCO)C(C(=O)NCCN(CCNC(=O)C(C(C)C)N(CCO)C(=O)CCCCCCCCCCCCCCC)CCNC(=O)C(C(C)C)N(CCO)C(=O)CCCCCCCCCCCCCCC)C(C)C` (stereo not drawn) [A1I5R22C16] stands 4.10E+05.
Same read-out and setting: under `CCCCC/C=C\C/C=C\CCCCCCCC(=O)N(CCO)C(C(=O)NCCN(CCNC(=O)C(C(C)C)N(CCO)C(=O)CCCCCCC/C=C\C/C=C\CCCCC)CCNC(=O)C(C(C)C)N(CCO)C(=O)CCCCCCC/C=C\C/C=C\CCCCC)C(C)C` (stereo not drawn) [A1I5R22C18-2] stands 6.90E+05; under `CCCCCCCCCCCCCCCCCC(=O)N(CCO)C(C(=O)NCCN(CCNC(=O)C(C(C)C)N(CCO)C(=O)CCCCCCCCCCCCCCCCC)CCNC(=O)C(C(C)C)N(CCO)C(=O)CCCCCCCCCCCCCCCCC)C(C)C` (stereo not drawn) [A1I5R22C18], 1.10E+05; under `CCCCCCSSCCC(=O)N(CCO)C(C(=O)NCCN(CCNC(=O)C(C(C)C)N(CCO)C(=O)CCSSCCCCCC)CCNC(=O)C(C(C)C)N(CCO)C(=O)CCSSCCCCCC)C(C)C` (stereo not drawn) [A1I5R22S11], 1.30E+05.
Still for that read-out and setting: for `CCCCCCCCCCCCSSCCC(=O)N(CCO)C(C(=O)NCCN(CCNC(=O)C(C(C)C)N(CCO)C(=O)CCSSCCCCCCCCCCCC)CCNC(=O)C(C(C)C)N(CCO)C(=O)CCSSCCCCCCCCCCCC)C(C)C` (stereo not drawn) [A1I5R22S17] the value was 6.40E+05.
`CCCCCCCCCCCCCCSSCCC(=O)N(CCO)C(C(=O)NCCN(CCNC(=O)C(C(C)C)N(CCO)C(=O)CCSSCCCCCCCCCCCCCC)CCNC(=O)C(C(C)C)N(CCO)C(=O)CCSSCCCCCCCCCCCCCC)C(C)C` (stereo not drawn) [A1I5R22S19]: the “Fluorescence intensity of spleen” value (compounds of Example 3) turned out to be 1.80E+06.
Same read-out and setting: under `CCCCCCCCCCCCN(C(=O)CO)C(C(=O)NCCN(CCNC(=O)C(C(C)C)N(CCCCCCCCCCCC)C(=O)CO)CCNC(=O)C(C(C)C)N(CCCCCCCCCCCC)C(=O)CO)C(C)C` (stereo not drawn) [A1I5R50C21] stands 3.60E+06.
For `CCCCCCCC/C=C\CCCCCCCC(=O)N(CCN(C)C)C(C(=O)NCCCCCCCCCCCCCCCCCC)C(C)C` (stereo not drawn) [A1I18R1C18-1], the “Fluorescence intensity of liver” value is reported as 5.08E+05.
Take `CCCCC/C=C\C/C=C\CCCCCCCC(=O)N(CCN(C)C)C(C(=O)NCCCCCCCCCCCCCCCCCC)C(C)C` (stereo not drawn) [A1I18R1C18-2]: the “Fluorescence intensity of liver” value came to 2.27E+05.
Same read-out and setting: under `CC/C=C\C/C=C\C/C=C\CCCCCCCC(=O)N(CCN(C)C)C(C(=O)NCCCCCCCCCCCCCCCCCC)C(C)C` (stereo not drawn) [A1I18R1C18-3] stands 1.88E+06; under `CCCCCCCCCCCCCCCCCCNC(=O)C(C(C)C)N(CCN(C)C)C(=O)CCCCCCCCCCCCCCCCC` (stereo not drawn) [A1I18R1C18], 6.37E+03.
The same measure, in the same setting: under `CCCCCCCCCCCCC#CC#CCCCCCCCCC(=O)N(CCN(C)C)C(C(=O)NCCCCCCCCCCCCCCCCCC)C(C)C` (stereo not drawn) [A1I18R1C23] stands 9.51E+05; under `CCCCCCCC/C=C\CCCCCCCC(=O)N(CCCN(C)C)C(C(=O)NCCCCCCCCCCCCCCCCCC)C(C)C` (stereo not drawn) [A1I18R2C18-1], 2.63E+04.
The same measure, in the same setting: for `CC/C=C\C/C=C\C/C=C\CCCCCCCC(=O)N(CCCN(C)C)C(C(=O)NCCCCCCCCCCCCCCCCCC)C(C)C` (stereo not drawn) [A1I18R2C18-3] the value was 6.77E+04; for `CCCCCCCCCCCCC#CC#CCCCCCCCCC(=O)N(CCCN(C)C)C(C(=O)NCCCCCCCCCCCCCCCCCC)C(C)C` (stereo not drawn) [A1I18R2C23], 2.70E+05.
`CCCCCCCC/C=C\CCCCCCCC(=O)N(CCCN(CC)CC)C(C(=O)NCCCCCCCCCCCCCCCCCC)C(C)C` (stereo not drawn) [A1I18R3C18-1]: the “Fluorescence intensity of liver” value was determined as 9.29E+03.
Consider `CCCCC/C=C\C/C=C\CCCCCCCC(=O)N(CCCN(CC)CC)C(C(=O)NCCCCCCCCCCCCCCCCCC)C(C)C` (stereo not drawn) [A1I18R3C18-2], for which the “Fluorescence intensity of liver” value was found to be 1.48E+05.
On to `CC/C=C\C/C=C\C/C=C\CCCCCCCC(=O)N(CCCN(CC)CC)C(C(=O)NCCCCCCCCCCCCCCCCCC)C(C)C` (stereo not drawn) [A1I18R3C18-3], for which the “Fluorescence intensity of liver” value came to 2.22E+04.
`CCCCCCCCCCCCCCCCCCNC(=O)C(C(C)C)N(CCCN(CC)CC)C(=O)CCCCCCCCCCCCCCCCC` (stereo not drawn) [A1I18R3C18]: the “Fluorescence intensity of liver” value came to 3.91E+03.
On the same count and under the same terms, for `CCCCCCCCCCCCC#CC#CCCCCCCCCC(=O)N(CCCN(CC)CC)C(C(=O)NCCCCCCCCCCCCCCCCCC)C(C)C` (stereo not drawn) [A1I18R3C23] the value was 7.67E+04.
Regarding `CCCCCCCC/C=C\CCCCCCCC(=O)N(CCCN(C)C)C(C(=O)NCCN(C)CCNC(=O)C(C(CC)CCCC)N(CCCN(C)C)C(=O)CCCCCCC/C=C\CCCCCCCC)C(CC)CCCC` (stereo not drawn) [A4I4R2C18-1], for the setting “compounds of Example 2”, the “Fluorescence intensity of spleen” value is reported as 1.13E+03.
The same measure, in the same setting: under `CCCCC/C=C\C/C=C\CCCCCCCC(=O)N(CCCN(C)C)C(C(=O)NCCN(C)CCNC(=O)C(C(CC)CCCC)N(CCCN(C)C)C(=O)CCCCCCC/C=C\C/C=C\CCCCC)C(CC)CCCC` (stereo not drawn) [A4I4R2C18-2] stands 1.86E+04; under `CCCCCCCCCCCCCCCCCC(=O)N(CCCN(C)C)C(C(=O)NCCN(C)CCNC(=O)C(C(CC)CCCC)N(CCCN(C)C)C(=O)CCCCCCCCCCCCCCCCC)C(CC)CCCC` (stereo not drawn) [A4I4R2C18], 2.24E+03.
In the case of `CCCCCCCC/C=C\CCCCCCCC(=O)N(CCN1CCCCCC1)C(C(=O)NCCN(C)CCNC(=O)C(C(CC)CCCC)N(CCN1CCCCCC1)C(=O)CCCCCCC/C=C\CCCCCCCC)C(CC)CCCC` (stereo not drawn) [A4I4R13C18-1], the “Fluorescence intensity of spleen” value (compounds of Example 2) is given as 1.59E+03.
Same read-out and setting: for `CCCCC/C=C\C/C=C\CCCCCCCC(=O)N(CCN1CCCCCC1)C(C(=O)NCCN(C)CCNC(=O)C(C(CC)CCCC)N(CCN1CCCCCC1)C(=O)CCCCCCC/C=C\C/C=C\CCCCC)C(CC)CCCC` (stereo not drawn) [A4I4R13C18-2] the value was 1.19E+04.
The same measure, in the same setting: under `CCCCCCCCCCCCCCCCCC(=O)N(CCN1CCCCCC1)C(C(=O)NCCN(C)CCNC(=O)C(C(CC)CCCC)N(CCN1CCCCCC1)C(=O)CCCCCCCCCCCCCCCCC)C(CC)CCCC` (stereo not drawn) [A4I4R13C18] stands 2.79E+03; under `CCCCCCCC/C=C\CCCCCCCC(=O)N(CCC)C(C(=O)NCCN(C)CCNC(=O)C(C(CC)CCCC)N(CCC)C(=O)CCCCCCC/C=C\CCCCCCCC)C(CC)CCCC` (stereo not drawn) [A4I4R21C18-1], 3.02E+04.
On the same count and under the same terms, under `CCCCC/C=C\C/C=C\CCCCCCCC(=O)N(CCC)C(C(=O)NCCN(C)CCNC(=O)C(C(CC)CCCC)N(CCC)C(=O)CCCCCCC/C=C\C/C=C\CCCCC)C(CC)CCCC` (stereo not drawn) [A4I4R21C18-2] stands 1.91E+04; under `CCCCCCCCCCCCCCCCCC(=O)N(CCC)C(C(=O)NCCN(C)CCNC(=O)C(C(CC)CCCC)N(CCC)C(=O)CCCCCCCCCCCCCCCCC)C(CC)CCCC` (stereo not drawn) [A4I4R21C18], 2.09E+04.
With `CCCCCCCC/C=C\CCCCCCCC(=O)N(CCOC)C(C(=O)NCCN(C)CCNC(=O)C(C(CC)CCCC)N(CCOC)C(=O)CCCCCCC/C=C\CCCCCCCC)C(CC)CCCC` (stereo not drawn) [A4I4R23C18-1], under “compounds of Example 2”, the “Fluorescence intensity of spleen” value is on record as 6.08E+04.
For the compound `CCCCC/C=C\C/C=C\CCCCCCCC(=O)N(CCCN(C)C)C(C(=O)NCCCCCCCCCCCCCC)C(CC)CCCC` (stereo not drawn) [A4I10R2C18-2], the “Fluorescence intensity of liver” value amounted to 1.15E+06.
On the same count and under the same terms, under `CCCCC/C=C\C/C=C\CCCCCCCC(=O)N(CCCN(C)C)C(C(=O)NCCCCCCCCCCCCCC)C(CC)CCCC` (stereo not drawn) [A4I14R2C18-2] stands 9.02E+05; under `CC/C=C\C/C=C\C/C=C\CCCCCCCC(=O)N(CCN(C)C)C(C(=O)NCCCCCCCCCCCCCCCCCC)C(CC)CCCC` (stereo not drawn) [A4I18R1C18-3], 3.88E+06; under `CCCCCCCCCCCCCCCCCCNC(=O)C(C(CC)CCCC)N(CCN(C)C)C(=O)CCCCCCCCCCCCCCCCC` (stereo not drawn) [A4I18R1C18], 3.65E+05.
Same read-out and setting: under `CCCCCCCCCCCCC#CC#CCCCCCCCCC(=O)N(CCN(C)C)C(C(=O)NCCCCCCCCCCCCCCCCCC)C(CC)CCCC` (stereo not drawn) [A4I18R1C23] stands 1.78E+06.
`CC/C=C\C/C=C\C/C=C\CCCCCCCC(=O)N(CCCN(C)C)C(C(=O)NCCCCCCCCCCCCCCCCCC)C(CC)CCCC` (stereo not drawn) [A4I18R2C18-3] gave a Bioluminescence intensity of 1.36E+07.
In turn, `CCCCCCCCCCCCC#CC#CCCCCCCCCC(=O)N(CCCN(C)C)C(C(=O)NCCCCCCCCCCCCCCCCCC)C(CC)CCCC` (stereo not drawn) [A4I18R2C23] yielded a Bioluminescence intensity of 1.40E+07.
On the same count and under the same terms, for `CCCCCCCCCCCCC#CC#CCCCCCCCCC(=O)N(CCCN(CC)CC)C(C(=O)NCCCCCCCCCCCCCCCCCC)C(CC)CCCC` (stereo not drawn) [A4I18R3C18-3] the value was 1.32E+07.
As to `CCCCCCCCCCCCCCCCCCNC(=O)C(C(CC)CCCC)N(CCCN(CC)CC)C(=O)CCCCCCCCCCCCCCCCC` (stereo not drawn) [A4I18R3C18], the “Fluorescence intensity of liver” value worked out at 1.69E+06.
On the same count and under the same terms, for `CCCCCCCCCCCCC#CC#CCCCCCCCCC(=O)N(CCCN(CC)CC)C(C(=O)NCCCCCCCCCCCCCCCCCC)C(CC)CCCC` (stereo not drawn) [A4I18R3C23] the value was 7.81E+06.
Still for that read-out and setting: for `CCCCC/C=C\C/C=C\CCCCCCCC(=O)N(CCN1CCOCC1)C(C(=O)NCCCCCCCCCCCCCCCCCC)C(CC)CCCC` (stereo not drawn) [A4I18R4C18-2] the value was 1.25E+04.
Same read-out and setting: for `CCCCC/C=C\C/C=C\CCCCCCCC(=O)N(CCN(C)CC)C(C(=O)NCCCCCCCCCCCCCCCCCC)C(CC)CCCC` (stereo not drawn) [A4I18R6C18-2] the value was 3.64E+04; for `CCCCC/C=C\C/C=C\CCCCCCCC(=O)N(CCCN(C)c1ccccc1)C(CCCCC)C(=O)NCCCCCCCCCCCCCCCCCC` (stereo not drawn) [A4I18R7C18-2], 5.22E+03.
Regarding `CCCCC/C=C\C/C=C\CCCCCCCC(=O)N(CCN(CC)CC)C(C(=O)NCCCCCCCCCCCCCCCCCC)C(CC)CCCC` (stereo not drawn) [A4I18R8C18-2], the “Fluorescence intensity of liver” value is listed as 2.48E+04.
